{"source": "patent EP0535155B1", "about": "“LIBRARIES OF MODIFIED PEPTIDES WITH PROTEASE RESISTANCE” (CHIRON CORPORATION, priority 1990, dated 2002)", "key": {"[1]": {"test_system": "chymotrypsin", "assay": "Proteolysis of peptoids and peptides by chymotrypsin (RP-HPLC)", "conditions": "chymotrypsin (isolated protease) in Tris buffer, pH 8", "procedure": "(§1) Each substrate was dissolved to 0.5 mg/mL in 10% DMSO, 100 mM Tris, 100 mM CaCl2, pH 8.0. Either trypsin or chymotrypsin was dissolved to 1 mg/mL in 0.001M HCI. At t=0, 10λ of enzyme or 0.001M HCI was added to 200λ of either the peptoid or peptide solution and incubated at 37°C. At the appropriate times, 50λ was removed and quenched with 50λ of 20% HOAc and assayed by HPLC on a C4 column with detection at 280 nm. The data below is given in percent area remaining on parent peak."}, "[2]": {"test_system": "chymotrypsin", "procedure": "as §1"}, "[3]": {"test_system": "chymotrypsin", "assay": "in vitro", "conditions": "isolated enzyme chymotrypsin, pH 8", "procedure": "as §1"}, "[4]": {"test_system": "trypsin", "procedure": "as §1"}, "[5]": {"assay": "physchem", "conditions": "buffer or solvent, pH 8", "procedure": "as §1"}, "[6]": {"test_system": "trypsin", "assay": "Proteolysis of peptoids and peptides by trypsin (RP-HPLC)", "conditions": "trypsin (isolated protease) in Tris buffer, pH 8", "procedure": "as §1"}}, "note": "Where a SMILES comes first, the peptide text is derived from it. The star is where a group is joined. Fmoc = O=C(OCC1c2ccccc2-c2ccccc21)*", "data": [{"smiles": "CC(C)C[C@H](NC(=O)OCC1c2ccccc2-c2ccccc21)C(=O)N[C@@H](CC(=O)O)C(=O)N[C@@H](Cc1ccccc1)C(=O)N[C@@H](CO)C(=O)N[C@@H](CCCCN)C(=O)NCC(=O)O", "note": "[PEPTIDE, FMOC-LDFSKG-OH] (Fmoc-LDFSKG-OH)", "values": [{"measurement": "remaining at 5 min, 0.476 mg/mL", "setting": "[1]", "result": 75, "unit": "%"}, {"measurement": "remaining at 10 min, 0.476 mg/mL", "setting": "[1]", "result": 41, "unit": "%"}, {"measurement": "cleavage at the second site", "setting": "[2]", "result": "not cbmpletely cleaved"}, {"measurement": "metabolised at 10 min, 0.476 mg/mL", "setting": "[3]", "result": "~60", "unit": "%"}, {"measurement": "remaining at 3 h, 0.476 mg/mL", "setting": "[3]", "result": 0, "unit": "%"}, {"measurement": "time in which cleavage was complete", "setting": "[4]", "result": "≤ 5", "unit": "min"}, {"measurement": "remaining at 5 min, 0.476 mg/mL", "setting": "[5]", "result": 100, "unit": "%"}, {"measurement": "remaining at 10 min, 0.476 mg/mL", "setting": "[5]", "result": 100, "unit": "%"}, {"measurement": "remaining at 3 h, 0.476 mg/mL", "setting": "[5]", "result": "< 100", "unit": "%"}, {"measurement": "remaining at 5 min, 0.476 mg/mL", "setting": "[6]", "result": 0, "unit": "%"}, {"measurement": "remaining at 10 min, 0.476 mg/mL", "setting": "[6]", "result": 0, "unit": "%"}, {"measurement": "remaining at 3 h, 0.476 mg/mL", "setting": "[6]", "result": 0, "unit": "%"}]}]}
